Experimental data reported in patent US12103919B2, “3-(5-oxy)-1-oxoisoindolin-2-yl)piperidine-2,6-dione derivatives and uses thereof” (NOVARTIS AG, priority 2021, dated 2024).
Where two headings read alike, the source gives them in different places.

Columns and labels:
SALL4 = target: T1, SALL4 (Homo sapiens, UniProt Q96SW2+Q9UJQ4); test: Quantification of SALL4 protein levels in HiBiT tag fusion protein assay; type: cell-based; details: for SALL4 Amax: DMSO-normalized, curve-fitted percentage of SALL4-HiBiT remaining at 50 uM, mean over repeats; for DC50: arithmatic mean over number of repeats, 18 hours, top 50 μM, read-out: SALL4 AC50
T1 construct: expressed in transfected cells; host or cells: GripTite 293 MSR cells (293GT), ThermoFisher Scientific, stably transfected by electroporation, blasticidin-selected clones
T1 sequence (Q9UJQ4 whole entry, the tested form may be a part): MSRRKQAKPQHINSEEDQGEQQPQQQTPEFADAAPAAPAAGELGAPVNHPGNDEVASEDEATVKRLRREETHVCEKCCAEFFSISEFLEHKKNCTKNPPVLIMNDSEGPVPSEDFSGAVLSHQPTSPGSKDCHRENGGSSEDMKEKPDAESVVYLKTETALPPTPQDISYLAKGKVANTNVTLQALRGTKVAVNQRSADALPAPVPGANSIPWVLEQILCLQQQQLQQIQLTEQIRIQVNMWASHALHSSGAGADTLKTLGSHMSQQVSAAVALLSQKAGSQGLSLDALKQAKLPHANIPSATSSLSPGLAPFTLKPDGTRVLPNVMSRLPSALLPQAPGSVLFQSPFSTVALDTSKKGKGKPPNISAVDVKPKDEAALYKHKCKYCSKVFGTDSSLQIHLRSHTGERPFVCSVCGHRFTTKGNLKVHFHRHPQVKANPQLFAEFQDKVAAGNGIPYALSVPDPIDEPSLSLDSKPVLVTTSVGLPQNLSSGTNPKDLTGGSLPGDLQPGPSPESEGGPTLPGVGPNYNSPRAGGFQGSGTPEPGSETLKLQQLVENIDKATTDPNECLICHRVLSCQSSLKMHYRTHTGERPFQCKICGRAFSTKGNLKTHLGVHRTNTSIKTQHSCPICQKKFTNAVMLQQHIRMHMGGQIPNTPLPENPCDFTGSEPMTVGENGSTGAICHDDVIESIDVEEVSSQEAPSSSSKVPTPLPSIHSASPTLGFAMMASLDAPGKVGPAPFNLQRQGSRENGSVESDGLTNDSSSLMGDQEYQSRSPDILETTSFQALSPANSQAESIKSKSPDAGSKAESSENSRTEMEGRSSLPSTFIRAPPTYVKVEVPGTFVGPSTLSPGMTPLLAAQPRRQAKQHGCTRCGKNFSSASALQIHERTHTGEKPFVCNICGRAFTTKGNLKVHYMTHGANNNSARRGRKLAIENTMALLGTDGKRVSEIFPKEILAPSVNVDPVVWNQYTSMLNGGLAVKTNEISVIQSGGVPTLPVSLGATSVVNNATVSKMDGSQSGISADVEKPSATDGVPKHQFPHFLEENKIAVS
T1 sequence (Q96SW2 whole entry, the tested form may be a part): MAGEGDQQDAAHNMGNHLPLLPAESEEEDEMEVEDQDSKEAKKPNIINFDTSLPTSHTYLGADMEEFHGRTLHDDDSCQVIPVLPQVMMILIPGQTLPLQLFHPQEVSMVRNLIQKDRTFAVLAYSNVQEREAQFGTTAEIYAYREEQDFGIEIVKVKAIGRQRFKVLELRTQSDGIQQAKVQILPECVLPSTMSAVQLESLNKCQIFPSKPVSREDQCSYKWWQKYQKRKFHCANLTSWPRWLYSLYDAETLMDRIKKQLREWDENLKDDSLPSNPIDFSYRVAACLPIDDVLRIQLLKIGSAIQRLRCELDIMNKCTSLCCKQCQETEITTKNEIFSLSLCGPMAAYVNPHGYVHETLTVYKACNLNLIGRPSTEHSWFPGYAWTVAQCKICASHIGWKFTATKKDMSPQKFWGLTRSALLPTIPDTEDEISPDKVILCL
T1 sequence (Q16531 whole entry partner, the tested form may be a part): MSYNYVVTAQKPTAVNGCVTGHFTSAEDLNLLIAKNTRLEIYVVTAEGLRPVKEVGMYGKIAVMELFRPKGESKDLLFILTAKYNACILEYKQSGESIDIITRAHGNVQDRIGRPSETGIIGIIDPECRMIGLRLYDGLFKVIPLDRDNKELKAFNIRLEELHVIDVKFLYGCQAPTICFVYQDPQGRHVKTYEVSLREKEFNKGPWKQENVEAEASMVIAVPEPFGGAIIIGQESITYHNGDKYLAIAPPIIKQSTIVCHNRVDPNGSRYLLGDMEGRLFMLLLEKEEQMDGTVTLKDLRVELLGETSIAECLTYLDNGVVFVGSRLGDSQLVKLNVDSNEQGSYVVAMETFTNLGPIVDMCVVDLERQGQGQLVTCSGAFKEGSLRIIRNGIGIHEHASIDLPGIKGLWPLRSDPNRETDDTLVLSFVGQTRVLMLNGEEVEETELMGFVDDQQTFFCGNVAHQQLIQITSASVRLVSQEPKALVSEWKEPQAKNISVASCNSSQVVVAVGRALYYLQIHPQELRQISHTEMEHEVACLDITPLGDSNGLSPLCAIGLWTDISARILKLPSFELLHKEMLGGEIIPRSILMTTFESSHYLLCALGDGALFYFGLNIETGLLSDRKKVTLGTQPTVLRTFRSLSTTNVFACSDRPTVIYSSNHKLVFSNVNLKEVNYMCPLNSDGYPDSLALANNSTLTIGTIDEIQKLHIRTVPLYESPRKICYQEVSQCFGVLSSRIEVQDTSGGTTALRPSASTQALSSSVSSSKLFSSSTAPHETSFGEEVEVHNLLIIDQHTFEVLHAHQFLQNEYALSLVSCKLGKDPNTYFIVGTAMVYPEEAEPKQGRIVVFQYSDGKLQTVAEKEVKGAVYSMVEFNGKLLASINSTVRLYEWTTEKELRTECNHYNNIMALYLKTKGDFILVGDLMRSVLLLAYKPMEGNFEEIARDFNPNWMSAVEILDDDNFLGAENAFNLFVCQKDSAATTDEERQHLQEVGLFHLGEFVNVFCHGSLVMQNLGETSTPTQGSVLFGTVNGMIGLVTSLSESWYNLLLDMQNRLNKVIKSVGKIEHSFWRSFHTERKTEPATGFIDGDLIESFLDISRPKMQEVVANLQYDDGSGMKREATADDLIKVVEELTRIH
Description: The HiBiT system from Promega was used to develop high-throughput and quantitative assays to measure changes in SALL4 protein levels in response to compounds. The HiBiT tag was derived from a split Nanoluciferase and has the following protein sequence: […] (SEQ ID No: 1). The complementary fragment of Nanoluciferase (known as LgBiT, from Promega), was added to the HiBiT tag to form an active Nanoluciferase enzyme whose activity can be precisely measured. In this way, the levels of a fusion protein with the HiBiT tag can be quantified in cell lysates.
DNA constructs, based on the Invitrogen pLenti6.2/V5 DEST backbone, were constructed with the HiBiT tag upstream of SALL4 and expressed the fusion protein from a CMV promotor.
To ensure moderate and consistent expression of the HiBiT-SALL4 fusion protein across all cells in the population, stable cell lines were derived from clones. GripTite 293 MSR cells (293GT) from ThermoFisher Scientific (Catalog number: CRL-R79507), were stably transfected with prepared constructs via electroporation. Following recovery, cells were selected by 10 ug/mL blasticidin in culture media.
The levels of HiBiT-SALL4 tagged fusion proteins in compound-treated cell lines were measured as follows:
On day 1, cells were diluted to 1.0×10^6 cells/ml in normal growth medium. 20 μL of cell suspension were plated in each well of a solid white 384-well plate. Plates were incubated overnight in a 37° C. and 5% CO2 humidified tissue culture incubator.
On day 2, serial dilutions of compounds were made in 384-well plates. Compound plates were set up with DMSO in columns 1, 2, 23, 24, and 10-point compound dilution series in column 3-12 and column 13-22. 10 mM stock solution of compound were placed into column 3 or 13 and a 1:5 serial dilution was carried out until there was a 10-point dilution series per compound. 100 nL of diluted compounds were transferred into the plated cells by Echo® (Labcyte) acoustic transfer. The highest concentration of compound was 50 μM. Plates were incubated overnight (18 hours) in a 37° C. and 5% CO2 humidified tissue culture incubator.
On day 3, plates were removed from the incubator and allowed to equilibrate at room temperature for 60 minutes. HiBiT substrate (Nano-Glo® HiBit Lytic Detection System, Promega Catalogue number: N3050) was added as described by the manufacturers protocols. Plates were incubated at room temperature for 30 minutes and luminescence was read using an EnVision® reader (PerkinElmer®). Data was analyzed and visualized using the Spotfire® software package.
SALL4 Amax reflects the DMSO-normalized, curve-fitted percentage of SALL4-HiBiT remaining at 50 uM. It was calculated by normalizing DMSO controls to 100%, parametric curve fitting of the dose response data (10-point, 5-fold), followed by calculation of response at 50 uM using the fitted equation.
This assay produced a range of SALL4 AC50 and Amax values over several repeat runs due to normal variations in the assay. For a comparison to the compounds described in PCT/IB2020/062070, the arithmatic mean values are reported over the number of repeats specified. […] The compounds of the present disclosure are therefore expected to have improved toxicological properties (Matyskiela, M. E., Couto, S., Zheng, X. et al. SALL4 mediates teratogenicity as a thalidomide-dependent cereblon substrate. Nat Chem Biol 14, 981-987 (2018); Donovan, K. A. et al. Thalidomide promotes degradation of SALL4, a transcription factor Implicated in Duane Radial Ray syndrome. eLife 2018; 7:e38430).

Fetal Hemoglobin (HbF) = test: Small molecule HbF induction assay in erythroid-differentiated mPB CD34+ cells (flow cytometry); type: cell-based, human; details: highest percentage of cells staining positive for HbF (% HbF+ cells) in fitted dose-response curve; DMSO baseline approximately 30-40%
Description: Cryopreserved primary human CD34^+ hematopoietic stem and progenitor cells were obtained from AllCeIIs, LLC. The CD34^+ cells were isolated from the peripheral blood of healthy donors after mobilization by administration of granulocyte colony-stimulating factor. Cells were differentiated ex vivo toward the erythroid lineage using a 2-phase culture method. In the first phase, cells were cultured in Stemspan™ Serum-Free Expansion Media (SFEM) ([…] Technologies Inc.) supplemented with rhSCF (50 ng/mL, Peprotech®, Inc.), rhlL-6 (50 ng/mL, Peprotech®, Inc.), rhlL-3 (50 ng/mL, Peprotech®, Inc.), and rhFlt3L (50 ng/mL, Peprotech®, Inc.), and 1× antibiotic-antimycotic (Life Technologies, Thermo Fisher Scientific) for 6 days at 37° C. with 5% CO2. During the second phase, cells were cultured in erythroid differentiation media at 5,000 cells/mL in the presence of compound for 7 days at 37° C. with 5% […]. Erythroid Differentiation Media is comprised of IMDM (Life Technologies) supplemented with insulin (10 μg/mL. Sigma Aldrich), heparin (2 U/mL Sigma Aldrich), holo-transferrin (330 μg/mL, Sigma Aldrich), human serum AB (5%, Sigma Aldrich), hydrocortisone (1 μM, […] Technologies), rhSCF (100 ng/mL, Peprotech®, Inc.), rhIL-3 (5 ng/mL. Peprotech®, Inc.), rhEPO (3 U/mL, Peprotech®, Inc.), and 1× antibiotic-antimycotic. All compounds were dissolved and diluted into dimethylsulfoxide (DMSO) and were added to culture media for a final concentration of 0.3% DMSO for testing in a 10-point, 1:3 dilution series starting at 10 uM.
For viability analysis, samples were washed and resuspended in phosphate-buffered saline (PBS) and stained with LlVE/DEAD™ Fixable Violet Dead Cell Stain Kit (Life Technologies, L34963) for 20 minutes. Cells were then washed again with PBS and resuspended in PBS supplemented with 2% fetal bovine serum (FBS), and 2 mM EDTA to prepare for cell surface marker analysis. […]
mPB CD34+ cells were expanded for 6 days, then erythroid differentiated in the presence of compound for 7 days. Cells were fixed, stained and analyzed by flow cytometry. […]

WIZ = target: T2, WIZ (Homo sapiens, UniProt O95785+Q96SW2); test: Quantification of WIZ protein levels in HiBit tag fusion protein assay (293T cells); type: cell-based; parameters: Dmax: dose or concentration left out as unconfirmed
T2 construct: expressed in transfected cells
T2 sequence (O95785 whole entry, the tested form may be a part): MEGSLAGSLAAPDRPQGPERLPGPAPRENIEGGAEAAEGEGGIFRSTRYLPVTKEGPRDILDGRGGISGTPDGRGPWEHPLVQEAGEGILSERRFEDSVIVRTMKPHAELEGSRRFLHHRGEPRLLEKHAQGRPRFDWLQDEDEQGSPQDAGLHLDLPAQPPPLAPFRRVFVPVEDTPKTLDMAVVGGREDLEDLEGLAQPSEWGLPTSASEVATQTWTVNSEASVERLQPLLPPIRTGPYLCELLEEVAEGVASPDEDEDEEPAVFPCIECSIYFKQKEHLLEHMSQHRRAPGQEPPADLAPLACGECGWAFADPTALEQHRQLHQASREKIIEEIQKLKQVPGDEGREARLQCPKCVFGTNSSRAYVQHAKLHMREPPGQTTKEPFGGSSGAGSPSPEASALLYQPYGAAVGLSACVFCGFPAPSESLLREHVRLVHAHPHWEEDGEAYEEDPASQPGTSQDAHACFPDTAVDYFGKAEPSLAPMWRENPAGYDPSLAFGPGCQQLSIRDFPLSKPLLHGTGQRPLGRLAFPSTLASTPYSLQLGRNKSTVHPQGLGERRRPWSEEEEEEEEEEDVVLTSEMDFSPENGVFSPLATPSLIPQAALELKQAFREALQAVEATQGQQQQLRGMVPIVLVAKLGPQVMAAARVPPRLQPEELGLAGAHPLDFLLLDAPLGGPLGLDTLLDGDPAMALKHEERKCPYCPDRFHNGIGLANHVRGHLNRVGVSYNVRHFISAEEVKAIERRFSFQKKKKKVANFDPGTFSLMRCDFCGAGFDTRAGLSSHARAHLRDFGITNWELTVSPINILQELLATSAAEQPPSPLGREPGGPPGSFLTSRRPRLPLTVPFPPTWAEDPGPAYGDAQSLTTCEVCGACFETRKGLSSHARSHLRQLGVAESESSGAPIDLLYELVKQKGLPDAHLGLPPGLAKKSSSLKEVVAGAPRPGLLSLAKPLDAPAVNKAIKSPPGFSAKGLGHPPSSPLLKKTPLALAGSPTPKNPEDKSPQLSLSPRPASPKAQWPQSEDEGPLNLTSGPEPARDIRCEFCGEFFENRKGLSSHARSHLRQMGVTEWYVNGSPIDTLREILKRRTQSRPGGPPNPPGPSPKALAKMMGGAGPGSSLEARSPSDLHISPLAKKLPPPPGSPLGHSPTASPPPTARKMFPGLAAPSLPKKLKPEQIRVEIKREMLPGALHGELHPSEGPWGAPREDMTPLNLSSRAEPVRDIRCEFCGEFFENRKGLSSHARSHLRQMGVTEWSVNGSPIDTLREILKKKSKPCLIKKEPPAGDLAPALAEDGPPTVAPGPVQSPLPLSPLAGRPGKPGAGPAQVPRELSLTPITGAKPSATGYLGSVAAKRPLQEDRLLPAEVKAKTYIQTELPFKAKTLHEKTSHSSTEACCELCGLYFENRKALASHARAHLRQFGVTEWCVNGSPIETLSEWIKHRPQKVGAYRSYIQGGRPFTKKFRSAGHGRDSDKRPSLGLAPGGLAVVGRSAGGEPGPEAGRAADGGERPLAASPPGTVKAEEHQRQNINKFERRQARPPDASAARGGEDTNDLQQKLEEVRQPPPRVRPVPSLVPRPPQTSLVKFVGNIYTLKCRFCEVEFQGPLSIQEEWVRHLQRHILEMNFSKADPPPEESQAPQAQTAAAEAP
T2 sequence (Q96SW2 whole entry, the tested form may be a part): as the sequence (Q96SW2 whole entry, the tested form may be a part) above
T2 sequence (Q16531 whole entry partner, the tested form may be a part): as the sequence (Q16531 whole entry partner, the tested form may be a part) above
Procedure, shortened: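 293T cells stably carrying a single-copy HiBit-WIZ fusion were exposed to compounds for about 18 hours at 37° C., top concentration 25 μM, 10-point 5-fold series. Lysates were complemented with LgBit and luminescence was read. Amax is the DMSO-normalized, curve-fitted percentage of WIZ-HiBit remaining at 25 uM.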

[1] = HEK-293T; DMSO-normalized, curve-fitted percentage of WIZ-HiBit remaining at 25 uM; read-out: WIZ Amax
[2] = HEK-293T; at 25 uM, 100 − Amax; read-out: % degradation of WIZ (100 − Amax)
[3] = WIZ HiBit assay in 293T cells, about 18 hours, 10-point 5-fold dilution, top 25 μM; read-out: WIZ AC50
[4] = HEK-293T, read-out: % degradation of WIZ (100 − Amax)

| remaining activity at 25 µM (WIZ; [1]) | Dmax at 25 µM (WIZ; [2]) | DC50 (WIZ; [3]) | SMILES | Dmax (WIZ; [4]) | remaining activity at 25 µM (WIZ; HEK-293T, read-out: WIZ Amax) | other results |
| --- | --- | --- | --- | --- | --- | --- |
|  |  |  | CCN1CCCC[C@@H]1COc1ccc2c(c1)CN(C1CCC(=O)NC1=O)C2=O (mixture of isomers) [Comparative Example 1, 3-(5-(((R)-1-ethylpiperidin-2-yl)methoxy)-1-oxoisoindolin-2-yl)piperidine-2,6-dione, reference compound] |  |  | SALL4 Amax (SALL4): 51.51%; DC50 (SALL4): 0.16 µM; HbF Amax (Fetal Hemoglobin (HbF)): 64.1% |
|  |  |  | O=C1CCC(N2Cc3cc(OC[C@H]4CCCCN4CC4CC4)ccc3C2=O)C(=O)N1 (stereo partly drawn) [Comparative Example 3, 3-(5-(((R)-1-(cyclopropylmethyl)piperidin-2-yl)methoxy)-1-oxoisoindolin-2-yl)piperidine-2,6-dione, reference compound] |  |  | SALL4 Amax (SALL4): 52.88%; DC50 (SALL4): 0.13 µM |
| 27.6% | 72.4% | 0.014 µM | O=C1CCC(N2Cc3cc(O[C@@H]4CCCN(CC5CC5)C4)ccc3C2=O)C(=O)N1 (stereo partly drawn) [Example 13, 3-(5-(((R)-1-(cyclopropylmethyl)piperidin-3-yl)oxy)-1-oxoisoindolin-2-yl)piperidine-2,6-dione] |  |  | SALL4 Amax (SALL4): 70.82%; DC50 (SALL4): 0.14 µM; DC50 (WIZ; updated arithmatic mean over the number of repeats specified, assay of Example 89; read-out: WIZ AC50): 0.021 µM |
|  |  |  | CCN1C[C@H](Oc2ccc3c(c2)CN(C2CCC(=O)NC2=O)C3=O)CC[C@@H]1C (stereo partly drawn) [Example 41, 3-(5-(((3R,6S)-1-ethyl-6-methylpiperidin-3-yl)oxy)-1-oxoisoindolin-2-yl)piperidine-2,6-dione] | 88.6% | 11.4% | DC50 (WIZ; read-out: WIZ AC50; WIZ HiBit assay in 293T cells, about 18 hours, 10-point 5-fold dilution, top 25 μM): 0.00014 µM; HbF Amax (Fetal Hemoglobin (HbF)): 73.1% |
| 96.8% | 3.24% | > 25 µM | CCOC(=O)N1C[C@H](Oc2ccc3c(c2)CN(C2CCC(=O)NC2=O)C3=O)CC[C@@H]1C (stereo partly drawn) [Example 83, ethyl (2S,5R)-5-((2-(2,6-dioxopiperidin-3-yl)-1-oxoisoindolin-5-yl)oxy)-2-methylpiperidine-1-carboxylate] |  |  |  |
| 81.7% | 18.3% | 1.17 µM | CNC(=O)N1C[C@H](Oc2ccc3c(c2)CN(C2CCC(=O)NC2=O)C3=O)CC[C@@H]1C (stereo partly drawn) [Example 84, (2S,5R)-5-((2-(2,6-dioxopiperidin-3-yl)-1-oxoisoindolin-5-yl)oxy)-N,2-dimethylpiperidine-1-carboxamide] |  |  |  |
| 65.7% | 34.3% | 0.0672 µM | C[C@H]1CC[C@@H](Oc2ccc3c(c2)CN(C2CCC(=O)NC2=O)C3=O)CN1S(C)(=O)=O (stereo partly drawn) [Example 85, 3-(5-(((3R,6S)-6-methyl-1-(methylsulfonyl)piperidin-3-yl)oxy)-1-oxoisoindolin-2-yl)piperidine-2,6-dione] |  |  |  |
| 76% | 24% | > 25 µM | CC(=O)N1C[C@H](Oc2ccc3c(c2)CN(C2CCC(=O)NC2=O)C3=O)CC[C@@H]1C (stereo partly drawn) [Example 86, 3-(5-(((3R,6S)-1-acetyl-6-methylpiperidin-3-yl)oxy)-1-oxoisoindolin-2-yl)piperidine-2,6-dione] |  |  |  |

| SMILES | remaining activity at 25 µM (WIZ; [1]) | Dmax at 25 µM (WIZ; [2]) | DC50 (WIZ; [3]) | Dmax (WIZ; [4]) | remaining activity at 25 µM (WIZ; HEK-293T, read-out: WIZ Amax) | other results |
| --- | --- | --- | --- | --- | --- | --- |
| CCC[C@H]1CC[C@@H](Oc2ccc3c(c2)CN(C2CCC(=O)NC2=O)C3=O)CN1 (stereo partly drawn) [Example 87-1, 3-(1-oxo-5-(((3R,6S)-6-propylpiperidin-3-yl)oxy)isoindolin-2-yl)piperidine-2,6-dione] |  |  | 0.0359 µM | 71.4% | 28.6% |  |
| CCC[C@H]1CC[C@@H](Oc2ccc3c(c2)CN(C2CCC(=O)NC2=O)C3=O)CN1CC (stereo partly drawn) [Example 87-2, 3-(5-(((3R,6S)-1-ethyl-6-propylpiperidin-3-yl)oxy)-1-oxoisoindolin-2-yl)piperidine-2,6-dione] |  |  | 0.0006 µM | 89.7% | 10.3% |  |
| CC1(C)CCC(Oc2ccc3c(c2)CN(C2CCC(=O)NC2=O)C3=O)CN1 (stereo not drawn) [Example 88-1, 3-(5-((6,6-dimethylpiperidin-3-yl)oxy)-1-oxoisoindolin-2-yl)piperidine-2,6-dione] |  |  | 0.135 µM | 50% | 50% |  |
| CCN1CC(Oc2ccc3c(c2)CN(C2CCC(=O)NC2=O)C3=O)CCC1(C)C (stereo not drawn) [Example 88-2, 3-(5-((1-ethyl-6,6-dimethylpiperidin-3-yl)oxy)-1-oxoisoindolin-2-yl)piperidine-2,6-dione] |  |  | 0.0007 µM | 79.5% | 20.5% |  |
